Legend:
[1] = system: cells that express alkaline phosphatase (rat bone marrow MSC); assay: Alkaline phosphatase expression by MSC in osteogenic medium; format: cell-based, Sprague Dawley rats; conditions: osteogenic medium 4 days, absorbance at 405 nm
Source text: Mesenchymal stem cells isolated from bone marrow and grown under appropriate conditions can express characteristics of multiple cell types, including cells involved in the generation of bone, cartilage, muscle and tendons. Osteogenic cells (cells that can form bone tissue) express the enzyme alkaline phosphatase when cultured in medium that drives them toward their osteogenic differentiation.
Bone marrow from female Sprague Dawley rats were harvested by flushing the femur with medium. The cells were placed in culture dishes 9 […], allowed to adhere overnight, and then placed in DMEM-LG medium containing antibiotics and 10% fetal calf serum together with varying concentrations of AII. At various times after culture initiation, the cells were washed with Tyrode's buffer and placed in osteogenic medium (DMEM-LG containing 10% fetal calf serum, 100 nM dexamethasone and 0.05 mM ascorbic acid) for 4 days prior to assessment of the level of alkaline phosphatase activity per well. Briefly, the wells were washed with Tyrode's buffer and 1 ml alkaline phosphatase substrate solution (50 mM glycine, pH 10.5, containing 1 mM magnesium chloride and 2.5 mM p-nitrophenyl phosphate) to each well. […] The absorbance of the resultant mixture at 405 nm was then determined via spectroscopy. The level of alkaline phosphatase activity is expressed as the level of absorbance per culture dish.

[2] = system: rat MSC; assay: Rat mesenchymal stem cell proliferation in bone marrow culture; format: cell-based, Sprague Dawley rats; conditions: 1 to 100 μg/ml, in presence of serum
Description: These studies were conducted to determine the effect that AII would have on the proliferation of MSC. Bone marrow cells were harvested from the femur and tibia of female Sprague Dawley rats by flushing the bones with Dulbecco's Minimal Essential Medium-High Glucose (“DMEM-HG”) with a syringe and an 18 gauge needle. These cells were cultured in 24 well plates at 5×10^3 cells/mm^2 in DMEM-HG containing selected lots of fetal calf serum (FCS) and antibiotics (complete medium) at 37° C. incubator containing 5% CO2 in air. Twenty-four hours after the initiation of the cultures the medium and nonadherent cells were aspirated and fresh medium was added. To each of these several wells, complete medium with (1 to 100 μg/ml) or without AII was added. The migration of cells from the clones and their proliferation was followed by microscopic examination. Every 4 days the old medium was removed and fresh medium was added to the cultures. These studies were conducted to determine the effect that inclusion of AII analogues and fragments in the cell culture of MSC would have on the proliferation of these cells. Bone marrow cells were harvested from the femur and tibia of female Sprague Dawley rats by flushing the bones with Dulbecco's Minimal Essential Medium-High Glucose (“DMEM-HG”) with a syringe and an 18 gauge needle. […]

[3] = system: AT2 receptor; conditions: cited from earlier work
[4] = system: wound tissue; conditions: application to wound tissue; cited from earlier work
[5] = system: murine peritoneal macrophages; assay: Respiratory burst (hydrogen peroxide generation), murine peritoneal macrophages; format: cell-based; conditions: alone and in response to PMA 10 ng/ml; 4 hours exposure
Description: The respiratory burst of leukocytes (macrophages and polymorphonuclear neutrophils) is one component of the mediator system used to kill bacteria. As with phagocytosis, the level of this respiratory burst activity in resident macrophages is low. […] Studies were conducted to assess the effect of in vitro exposure of murine or rat peritoneal macrophages and human peripheral blood mononuclear cells (PBMC) to various concentrations of AII on the capacity to generate hydrogen peroxide via the respiratory burst system. For the human studies, five different donors were examined.
The murine or rat peritoneal cells were harvested by lavage with 5-15 ml of cold PBS with 0.5% bovine serum albumin. The human PBMC were harvested by venipuncture from normal human volunteers and isolated from peripheral blood by Ficoll Hypaque density centrifugation. After isolation, the cells were resuspended at 1×10^6 cells/ml and placed at 100 μl per well into 96 well plates. The cells were incubated with various concentrations of AII or AII analogues for 4 hours at 37° C. The cells were then preloaded with a fluorescent probe for hydrogen peroxide, 2,7 dichlorofluorescein acetate, which is nonfluorescent in the absence of hydrogen peroxide. […] One hour after stimulation the level of fluorescence produced was measured on a Cytofluor 2350 multiwell fluorometer.

Asp-Arg-Val-Tyr-Ile-His-Pro-Phe [AII, known pressor agent, commercially available]
proliferation of cells that express alkaline phosphatase [1]: can accelerate the proliferation of cells that express alkaline phosphatase
number of sites from which the MSC were migrating (CFU) [2]: significantly increased
size (number of cells) of the colonies formed [2]: significantly increased
affinity for AT2 than AT1 [3]: 100 times
rate of wound healing [4]: significantly increases the rate of wound healing
ability to generate hydrogen peroxide (respiratory burst) [5]: increased the ability of leukocytes to generate hydrogen peroxide

Source: patent publication US7744927B2, “Methods of promoting hematopoietic and mesenchymal cell proliferation and differentiation” (University of Southern California, priority 1997, dated 2010)
